The test concerns the target PDHK2 (Homo sapiens (Human), UniProt Q15119). Kind of test: Biochemical activity testing of PDHK2: PDC inactivation assay. The note with it: human rec PDHK2, porcine heart PDC, 5 μM ATP, read-out: IC50 PDHK2 (enzyme assay). From the text:
Biochemical Activity Testing of PDHK2: PDC Inactivation Assay
The biochemical activity assay for PDHK2 is based on the inactivation of PDC through phosphorylation by PDHK2. The assay is run in two steps: the enzymatic PDHK2 reaction in which isolated PDC is phosphorylated by PDHK2 with ATP as co-substrate and the PDC activity assay in which pyruvate and NAD are converted to acetyl-CoA and NADH. The PDC activity correlates to the increase in NADH and thereby is detectable directly via the increasing fluorescence signal (Exc 340 nm, Em 450 nm). Inhibition of PDHK2 results in a lower phosphorylation status and thereby a less decrease in activity of PDC and a stronger increase in NADH fluorescence signal.
The PDC inactivation assay is performed in Greiner 384-well microtiter plates and is used for high throughput screen. 4 μl of PDHK2 (human, rec, Carna Bioscience, 10 ng/μl-137 nM final concentration) and PDC (isolated from porcine heart, Sigma-Aldrich, 20 mU/ml final concentration) are incubated in the absence or presence of the test compound (10 dilution concentrations) for 30 min at room temperature in kinase buffer (15 mM potassium phosphate buffer, pH 7.0, 60 mM KCl, 1.5 mM DTT, 2.5 mM MgCl2, 0.0125% (w/v) BSA, 0.125% Pluronic F-68). The kinase reaction is started by the addition of 4 μl ATP substrate solution (fc 5 μM in kinase buffer). After 30 min incubation at 37° C. 40 μl of PDC reaction solution (100 mM Tris/HCl, pH 7.8, 0.5 mM EDTA, 1 mM MgCl2, 50 mM NaF, 0.25 mM Coenzyme A, 5 mM pyruvate, 1 mM NAD, 5 mM DTT, 1 mM thiamine pyrophosphate) is added. The first fluorescence measurement is performed on a Perkin Elmer Envision (Exc 340 nm, Em 450 nm). The reaction is incubated for 45 min at room temperature. Afterwards a second fluorescence measurement is performed and the PDC activity is calculated by the difference between both measurements. As full value for the PDHK2 assay the inhibitor-free PDHK2 reaction is used. The pharmacological zero value used is DCA (Sigma-Aldrich) in a final concentration of 3 mM. The inhibitory values […] were determined using either the program Symyx Assay Explorer® or Condosseo® from GeneData.

A word on the IC50: it is the midpoint of a concentration-inhibition curve.

`C[C@H]1CN(C(=O)[C@@](C)(O)C(F)(F)F)Cc2cnn(-c3ccc(F)cc3F)c21` [Compound A21, (R)-1-[(S)-1-(2,4-Difluoro-phenyl)-7-methyl-1,4,6,7-tetrahydro-pyrazolo[4,3-c]pyridin-5-yl]-3,3,3-trifluoro-2-hydroxy-2-methyl-propan-1-one]: the IC50 was 0.3 to 3 µM.
The figure for `C[C@H]1CN(C(=O)[C@@](C)(O)C(F)(F)F)Cc2cnn(C(C)(C)C)c21` [Compound A23, (R)-1-((S)-1-tert-Butyl-7-methyl-1,4,6,7-tetrahydro-pyrazolo[4,3-c]pyridin-5-yl)-3,3,3-trifluoro-2-hydroxy-2-methyl-propan-1-one] is 3 to 50 µM.
The figure for `C[C@H]1CN(C(=O)[C@@](C)(O)C(F)(F)F)Cc2cnn(-c3ccccc3F)c21` [Compound A25, (R)-3,3,3-Trifluoro-1-[(S)-1-(2-fluoro-phenyl)-7-methyl-1,4,6,7-tetrahydro-pyrazolo[4,3-c]pyridin-5-yl]-2-hydroxy-2-methyl-propan-1-one] is 0.3 to 3 µM; for `C[C@@H]1CN(C(=O)[C@@](C)(O)C(F)(F)F)Cc2cnn(-c3ccccc3C#N)c21` [Compound A26, 2-[(R)-7-Methyl-5-((R)-3,3,3-trifluoro-2-hydroxy-2-methyl-propionyl)-4,5,6,7-tetrahydro-pyrazolo[4,3-c]pyridin-1-yl]-benzonitrile] it is 3 to 50 µM.
For `C[C@H]1CN(C(=O)[C@@](C)(O)C(F)(F)F)Cc2cnn(-c3ccccc3C#N)c21` [Compound A27, 2-[(S)-7-Methyl-5-((R)-3,3,3-trifluoro-2-hydroxy-2-methyl-propionyl)-4,5,6,7-tetrahydro-pyrazolo[4,3-c]pyridin-1-yl]-benzonitrile] the value was 0.3 to 3 µM; for `C[C@H]1CN(C(=O)[C@@](C)(O)C(F)(F)F)Cc2cnn(-c3ncccc3F)c21` [Compound A33, (R)-3,3,3-Trifluoro-1-[(S)-1-(3-fluoro-pyridin-2-yl)-7-methyl-1,4,6,7-tetrahydro-pyrazolo[4,3-c]pyridin-5-yl]-2-hydroxy-2-methyl-propan-1-one], 3 to 50 µM; for `C[C@H]1CN(C(=O)[C@@](C)(O)C(F)(F)F)Cc2cnn(-c3ncc(F)cc3F)c21` [Compound A35, (R)-1-[(S)-1-(3,5-Difluoro-pyridin-2-yl)-7-methyl-1,4,6,7-tetrahydro-pyrazolo[4,3-c]pyridin-5-yl]-3,3,3-trifluoro-2-hydroxy-2-methyl-propan-1-one], 0.3 to 3 µM.
Consider `COc1ncc(F)c(-n2ncc3c2[C@H](C)CN(C(=O)[C@@](C)(O)C(F)(F)F)C3)n1` [Compound A36, (R)-3,3,3-Trifluoro-1-[(R)-1-(5-fluoro-2-methoxy-pyrimidin-4-yl)-7-methyl-1,4,6,7-tetrahydro-pyrazolo[4,3-c]pyridin-5-yl]-2-hydroxy-2-methyl-propan-1-one], for which the IC50 lay within 0.3 to 3 µM.
The figure for `C[C@H]1CN(C(=O)[C@@](C)(O)C(F)(F)F)Cc2cnn(C3CCC(O)CC3)c21` (stereo partly drawn) [Compound A39, (R)-3,3,3-Trifluoro-2-hydroxy-1-[(S)-1-(4-hydroxy-cyclohexyl)-7-methyl-1,4,6,7-tetrahydro-pyrazolo[4,3-c]pyridin-5-yl]-2-methyl-propan-1-one] is 0.3 to 3 µM; for `C[C@H]1CN(C(=O)[C@@](C)(O)C(F)(F)F)Cc2cnn(-c3ccc(F)cn3)c21` [Compound A41, (R)-3,3,3-Trifluoro-1-[(S)-1-(5-fluoro-pyridin-2-yl)-7-methyl-1,4,6,7-tetrahydro-pyrazolo[4,3-c]pyridin-5-yl]-2-hydroxy-2-methyl-propan-1-one] it is 3 to 50 µM; for `C[C@H]1CN(C(=O)[C@@](C)(O)C(F)(F)F)Cc2cnc(-c3ccc(F)cc3)n21` [Compound A53, (R)-3,3,3-Trifluoro-1-[(S)-3-(4-fluoro-phenyl)-5-methyl-5,6-dihydro-8H-imidazo[1,5-a]pyrazin-7-yl]-2-hydroxy-2-methyl-propan-1-one] it is 3 to 50 µM.

Values taken from patent US10526325B2, “Bicyclic heterocyclic derivatives” (Merck Patent GmbH, priority 2015, dated 2020).
